One assay addresses KRAS G12V (Homo sapiens, UniProt P01116, G12V). Kind of assay: SOS-catalyzed nucleotide exchange assay, KRAS G12V (Procedure A). The assay is classed as biochemical. The conditions noted are these: GNE. The method in brief: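 Biotinylated KRAS G12V was loaded with Bodipy-GDP alongside Terbium-streptavidin to form a TR-FRET complex, which was preincubated with compounds for 60 minutes in 384-well plates. Human SOS protein and unlabeled GTP were then added for 90 minutes, giving final concentrations of 1.25 nM KRAS-G12V, 160 nM SOS and 3 mM GTP. The 520/495 nm emission ratio was read on an Envision.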

Another assay addresses KRAS WT (Homo sapiens, UniProt P01116). Kind of assay: SOS-catalyzed nucleotide exchange assay, KRAS WT (Procedure A). The assay is classed as biochemical. The conditions noted are these: GNE. Put shortly:
(§1)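 Preformed TR-FRET complex of biotinylated KRAS (G12C carries C51S/C80L/C118S; others native sequence), Bodipy-GDP and Tb-streptavidin preincubated with compound 60 min at room temperature. Exchange started with human SOS plus 3 mM GTP for 60 min (G13D 30 min). Final RAS/SOS: G12C 3/40 nM; WT, G12D 1/40 nM; G13D 1.25/0 nM. 520/495 nm ratio normalised, fitted to four-parameter logistic.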

A further assay deals with KRAS G12D (Homo sapiens, UniProt P01116, G12D). Kind of assay: SOS-catalyzed nucleotide exchange assay, KRAS G12D (Procedure A). The conditions noted are these: guanine nucleotide exchange (GNE). The assay is classed as biochemical. The method in brief:
as §1

The target in another assay is T1, AsPC-1 cells (Homo sapiens, UniProt P01116, G12D).
T1 construct: p-ERK/total ERK AlphaSureFire read-out
Kind of assay: Cellular phospho-ERK assay, AsPC-1 cells (KRAS G12D). The assay is classed as cell-based. The settings on record: 2 hours, read-out: AsPC1 pERK IC50. The method in brief:
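PANC08.13 or AsPC-1 cells (homozygous KRAS G12D) were seeded overnight, then treated for 2 h at 37 °C with a 10-point 1:3 titration from 30 μM. Lysates were assayed by AlphaLISA SureFire for p-ERK and total ERK. IC50 came from a 4-parameter fit of the p-ERK/total ERK ratio.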

Chain of KRAS G12V (P01116 with tags, fused parts or gaps isoform P01116-2 G12V): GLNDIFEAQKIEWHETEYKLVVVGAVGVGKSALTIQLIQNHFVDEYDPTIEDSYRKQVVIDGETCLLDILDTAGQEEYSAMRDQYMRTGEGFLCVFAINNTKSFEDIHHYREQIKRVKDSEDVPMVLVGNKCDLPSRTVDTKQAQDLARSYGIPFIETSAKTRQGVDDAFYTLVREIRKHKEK
Chain of KRAS G12D (P01116 with tags, fused parts or gaps isoform P01116-2 G12D): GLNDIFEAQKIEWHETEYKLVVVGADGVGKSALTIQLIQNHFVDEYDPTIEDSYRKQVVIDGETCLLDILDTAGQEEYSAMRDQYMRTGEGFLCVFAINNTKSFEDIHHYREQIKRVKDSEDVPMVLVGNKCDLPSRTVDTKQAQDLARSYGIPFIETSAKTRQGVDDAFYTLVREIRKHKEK
Chain of KRAS WT (P01116 with tags, fused parts or gaps isoform P01116-2): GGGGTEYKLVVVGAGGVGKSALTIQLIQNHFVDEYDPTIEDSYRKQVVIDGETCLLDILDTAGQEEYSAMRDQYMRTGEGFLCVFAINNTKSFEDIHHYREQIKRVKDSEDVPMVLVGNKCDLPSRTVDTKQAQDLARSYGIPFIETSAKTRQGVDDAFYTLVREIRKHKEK
T1 sequence (P01116 1-188 isoform P01116-2 G12D): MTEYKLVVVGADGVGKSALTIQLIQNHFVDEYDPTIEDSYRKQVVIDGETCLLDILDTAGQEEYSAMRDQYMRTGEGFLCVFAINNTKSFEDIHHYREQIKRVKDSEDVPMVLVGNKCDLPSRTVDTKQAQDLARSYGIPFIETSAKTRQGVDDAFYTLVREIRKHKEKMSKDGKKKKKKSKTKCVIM

Take `C#Cc1c(F)ccc2cc3[nH]ncc3c(-c3nccc4c3sc3nc(OC[C@@]56CCC7(CC7)N5C[C@H](F)C6)nc(N5C[C@H]6CC[C@@H](C5)N6)c34)c12` [Ex-97, 4-((1R,5S)-3,8-diazabicyclo[3.2.1]octan-3-yl)-8-(5-ethynyl-6-fluoro-1H-benzo[f]indazol-4-yl)-2-(((6′R,7a′S)-6′-fluorotetrahydrospiro[cy-clopropane-1,3′-pyrrolizin]-7a′(5'H)-yl)methoxy)pyrido[4′, 3′:4,5]thieno[2,3-d]pyrimidine]: the half-inhibitory concentration (IC50) at KRAS G12V worked out at 3130 nM; on KRAS WT it was 1290 nM; at KRAS G12D it was 3 nM; at AsPC-1 cells, 210 nM.

As for `C#Cc1c(F)ccc2cc3[nH]ncc3c(-c3nccc4c3sc3nc(OC[C@]5(CN6CCC7(CCC7)CC6)CC5(F)F)nc(N5C[C@H]6CC[C@@H](C5)N6)c34)c12` [Ex-98, 2-(((R)-1-((7-azaspiro[3.5]nonan-7-yl)methyl)-2,2-difluorocyclopropyl)meth-oxy)-4-((1R,5S)-3,8-diazabicyclo[3.2.1]octan-3-yl)-8-(5-ethynyl-6-fluoro-1H-benzo[f]indazol-4-yl)pyrido[4′,3′:4,5]thie-no[2,3-d]pyrimidine], the IC50 was above 11100 nM against KRAS G12V, 6360 nM on KRAS WT, 6.92 nM on KRAS G12D and 362 nM on AsPC-1 cells.

Regarding `C#Cc1c(F)ccc2cc3[nH]ncc3c(-c3nccc4c3sc3nc(OC[C@]5(CN6CC7(CC(F)C7)C6)CC5(F)F)nc(N5C[C@H]6CC[C@@H](C5)N6)c34)c12` [Ex-99, 4-((1R,5S)-3,8-diazabicyclo[3.2.1]octan-3-yl)-2-(((R)-2,2-difluoro-1-((6-fluoro-2-azaspiro[3.3]heptan-2-yl)methyl)cyclopropyl)methoxy)-8-(5-ethynyl-6-fluoro-1H-benzo[f]indazol-4-yl)pyrido[4′,3′:4,5]thie-no[2,3-d]pyrimidine], the IC50 at KRAS G12V stood at 2740 nM; at KRAS WT, 1080 nM; against KRAS G12D, 1.53 nM; at AsPC-1 cells, 59.9 nM.

`C#Cc1c(F)ccc2cc3[nH]ncc3c(-c3nccc4c3sc3nc(OC[C@]5(CN6CCC7(CCCCC7)CC6)CC5(F)F)nc(N5C[C@H]6CC[C@@H](C5)N6)c34)c12` [Ex-100, 2-(((R)-1-((3-azaspiro[5.5]undecan-3-yl)methyl)-2,2-difluorocyclopropyl)meth-oxy)-4-((1R,5S)-3,8-diazabicyclo[3.2.1]octan-3-yl)-8-(5-ethynyl-6-fluoro-1H-benzo[f]indazol-4-yl)pyrido [4′,3′:4,5]thie-no[2,3-d]pyrimidine]: the IC50 at KRAS G12V is above 11100 nM; against KRAS WT, above 11100 nM; against KRAS G12D, 8.52 nM; at AsPC-1 cells it was 753 nM.

On to `C#Cc1c(F)ccc2cc3[nH]ncc3c(-c3nccc4c3sc3nc(OC[C@]5(CN6CCN(CC(F)(F)F)CC6)CC5(F)F)nc(N5C[C@H]6CC[C@@H](C5)N6)c34)c12` [Ex-101, 4-((1R,5S)-3,8-diazabicyclo[3.2.1]octan-3-yl)-2-(((R)-2,2-difluoro-1-((4-(2,2,2-trifluoroethyl)piperazin-1-yl)methyl)cyclopropyl)methoxy)-8-(5-ethynyl-6-fluoro-1H-benzo[f]indazol-4-yl)pyrido[4′,3′:4,5]thie-no[2,3-d]pyrimidine], for which the IC50 at KRAS G12V was above 11100 nM; on KRAS WT, above 11100 nM; on KRAS G12D, 33.1 nM; at AsPC-1 cells, 1210 nM.

As to `C#Cc1c(F)ccc2cc3[nH]ncc3c(-c3nccc4c3sc3nc(OC[C@]5(CN6CCN(C(C)=O)CC6)CC5(F)F)nc(N5C[C@H]6CC[C@@H](C5)N6)c34)c12` [Ex-102, 1-(4-(((1R)-1-(((4-((1R,5S)-3,8-diazabicyclo[3.2.1]octan-3-yl)-8-(5-ethynyl-6-fluoro-1H-benzo[f]indazol-4-yl)pyrido [4′,3′:4,5]thie-no[2,3-d]pyrimidin-2-yl)oxy)methyl)-2,2-difluorocyclopropyl)meth-yl)piperazin-1-yl)ethan-1-one], the IC50 is above 11100 nM against KRAS G12V, above 11100 nM at KRAS WT, 12.3 nM on KRAS G12D and 2770 nM on AsPC-1 cells.

In the case of `C#Cc1c(F)ccc2cc3[nH]ncc3c(-c3nccc4c3sc3nc(OC[C@]5(CN6CC[C@@H](F)C6)CC5(F)F)nc(N5C[C@H]6CC[C@@H](C5)N6)c34)c12` [Ex-103, 4-((1R,5S)-3,8-diazabicyclo[3.2.1]octan-3-yl)-2-(((R)-2,2-difluoro-1-(((R)-3-fluoropyrrolidin-1-yl)methyl)cyclopropyl)methoxy)-8-(5-ethynyl-6-fluoro-1H-benzo[f]indazol-4-yl)pyrido[4′,3′:4,5]thie-no[2,3-d]pyrimidine], the IC50 was determined as 9280 nM against KRAS G12V, 2360 nM against KRAS WT, 2 nM against KRAS G12D and 296 nM at AsPC-1 cells.

`C#Cc1c(F)ccc2cc3[nH]ncc3c(-c3nccc4c3sc3nc(OC[C@]5(CN6CC7(CCOC7)C6)CC5(F)F)nc(N5C[C@H]6CC[C@@H](C5)N6)c34)c12` [Ex-104, 2-(((1R)-1-(((4-((1R,5S)-3,8-diazabicyclo[3.2.1]octan-3-yl)-8-(5-ethynyl-6-fluoro-1H-benzo[f]indazol-4-yl)pyrido[4′,3′:4,5]thie-no[2,3-d]pyrimidin-2-yl)oxy)methyl)-2,2-difluorocyclopropyl)meth-yl)-6-oxa-2-azaspiro[3.4]octane]: the IC50 against KRAS G12V was determined as 631 nM; against KRAS WT it was 399 nM; at KRAS G12D, 1.94 nM; on AsPC-1 cells it was 48.4 nM.

On to `C#Cc1c(F)ccc2cc3[nH]ncc3c(-c3nccc4c3sc3nc(OC[C@]5(CN6CCC(CCc7cn(C)nn7)CC6)CC5(F)F)nc(N5C[C@H]6CC[C@@H](C5)N6)c34)c12` [Ex-105, 4-((1R,5S)-3,8-diazabicyclo[3.2.1]octan-3-yl)-2-(((R)-2,2-difluoro-1-((4-(2-(1-methyl-1H-1,2,3-triazol-4-yl)ethyl)piperidin-1-yl)methyl)cyclopropyl)methoxy)-8-(5-ethynyl-6-fluoro-1H-benzo[f]indazol-4-yl)pyrido[4′,3′:4,5]thie-no[2,3-d]pyrimidine], for which the IC50 at KRAS G12V turned out to be 475 nM; against KRAS WT, 279 nM; on KRAS G12D, 1.6 nM; on AsPC-1 cells, 67 nM.

Turning to `C#Cc1c(F)ccc2cc3[nH]ncc3c(-c3nccc4c3sc3nc(OC[C@]5(CN6CCC7(CC6)CC(Cc6cn(C)nn6)C7)CC5(F)F)nc(N5C[C@H]6CC[C@@H](C5)N6)c34)c12` [Ex-106, 4-((1R,5S)-3,8-diazabicyclo[3.2.1]octan-3-yl)-2-(((R)-2,2-difluoro-1-((2-((1-methyl-1H-1,2,3-triazol-4-yl)methyl)-7-azaspiro[3.5]nonan-7-yl)methyl)cyclopropyl)methoxy)-8-(5-ethynyl-6-fluoro-1H-benzo[f]indazol-4-yl)pyrido[4′,3′:4,5]thie-no[2,3-d]pyrimidine], the IC50 against KRAS G12V is 1700 nM; against KRAS WT, 877 nM; against KRAS G12D, 2.03 nM; on AsPC-1 cells it was 74 nM.

Regarding `C#Cc1c(F)ccc2cc3[nH]ncc3c(-c3nccc4c3sc3nc(OC[C@]5(CN6CCC6)CC5(F)F)nc(N5C[C@H]6CC[C@@H](C5)N6)c34)c12` [Ex-107, 2-(((R)-1-(azetidin-1-ylmethyl)-2,2-difluorocyclopropyl)meth-oxy)-4-((1R,5S)-3,8-diazabicyclo[3.2.1]octan-3-yl)-8-(5-ethynyl-6-fluoro-1H-benzo[f]indazol-4-yl)pyrido[4′,3′:4,5]thie-no[2,3-d]pyrimidine], the IC50 on KRAS G12V was determined as 1030 nM; against KRAS WT, 800 nM; at KRAS G12D it was 3.23 nM; at AsPC-1 cells, 51.8 nM.

As to `C#Cc1c(F)ccc2cc3[nH]ncc3c(-c3nccc4c3sc3nc(OC[C@@]56CCCN5C[C@@H](F)C6)nc(N5CC6CCC(C5)N6)c34)c12` [Ex-108, 4-(3,8-diazabicyclo[3.2.1]octan-3-yl)-8-(5-ethynyl-6-fluoro-1H-benzo[f]indazol-4-yl)-2-(((2S,7aS)-2-fluorotetrahydro-1H-pyrrolizin-7a(5H)-yl)methoxy)pyrido[4′, 3′:4,5]thieno[2,3-d]pyrimidine], the IC50 is 372 nM against KRAS G12V, 215 nM against KRAS WT, 1.62 nM on KRAS G12D and 16.2 nM on AsPC-1 cells.

As to `C#Cc1c(F)ccc2cc3[nH]ncc3c(-c3nccc4c3sc3nc(OC[C@]5(CO)CC5(F)F)nc(N5C[C@H]6CC[C@@H](C5)N6)c34)c12` [Ex-109, ((1R)-1-(((4-((1R,5S)-3,8-diazabicyclo[3.2.1]octan-3-yl)-8-(5-ethynyl-6-fluoro-1H-benzo[f]indazol-4-yl)pyrido[4′,3′:4,5]thieno[2,3-d]pyrimidin-2-yl)oxy)methyl)-2,2-difluorocyclopropyl)methanol], the IC50 on KRAS G12V was above 11100 nM; against KRAS WT, above 11100 nM; against KRAS G12D it was 25.9 nM; on AsPC-1 cells, 1010 nM.

The term IC50 denotes the concentration that inhibits the measured activity by half.

Source of the values: patent publication US20260347372A1, “SMALL MOLECULE INHIBITORS OF KRAS G12D MUTANT” (MERCK SHARP & DOHME LLC, priority 2023, published 2026).
